Values of other authors in patent publication US20020103240A1, “Process for resolution of 2-amino-6-propylamino-4,5,6,7-tetrahydrobenzthiazole and compounds therefor” (priority 2000, published 2002).

Conditions: (S) isomer compared with (R) enantiomer; no test described

Question: Which “dopaminergic activity of the (S) isomer relative to the (R) enantiomer” value does the source give for `CCCN[C@H]1CCc2nc(N)sc2C1` [pramipexole, (S)-2-amino-6-propylamino-4,5,6,7-tetrahydrobenzothiazole] here?
Answer: Its value is “twice as high”.
